3 substances from patent US7482008B1, “Human T cell reactive feline protein (TRFP) isolated from house dust and uses therefor” (Merck Patent GmbH, priority 1989, dated 2009) can be followed below.

Several values for one entry are separate records, joined by “and”; a condition that tells them apart may be missing. Identical values can stand only once.

Assay [1] has as its system BDF1 mice preimmunized with TRFP. Briefly: ELISA of specific IgG binding of mouse sera to TRFP before and after tolerization. The assay is classed as in vivo. How it is done: BDF1 mice were each immunized with 100 μg TRFP in 200 μl IFA (Incomplete Freund's Adjuvant) in a single site intraperitoneally. After four months, the mice were bled and grouped according to their anti-TRFP IgG antibody levels as follows. The mice were warmed with an infra-red lamp and bled through one of the tail veins by nicking the vein with a razor blade (Gilette Platinum Plus). The blood was allowed to drip into a serum separating tube (Microtainer, Becton-Dickenson) and allowed to clot. The sera was then separated from the clot by centrifugation at 13,000 rpm. The sera was stored at −20° C. until use. The sera was assayed for TRFP-specific IgG by ELISA. For the IgG assay, immunoaffinity purified TRFP was coated onto Nunc Polysorp 96-well plates by incubation of 50 μl/well of 2 μg/ml TRFP in PBS. Unless mentioned, each incubation step in this protocol was performed for 1 hour at 37° C. After rinsing with PBS, the wells were incubated with 0.5% gelatin in PBS to block excess binding to the plate. The plates were rinsed with PBS containing 0.05% Tween 20. […] After rinsing, the bound mouse antibody was detected by incubation with biotinylated goat anti-mouse IgG (Southern Biotechnology Associates) diluted 1/10000 in PBS. The plates were rinsed and streptavidin conjugated to horse radish peroxidase (Southern Bio. Ass.) diluted 1/10000 was added for 20 minutes and incubated at room temperature. TMB peroxidase substrate (Kirkegaard and Perry) was used according to directions supplied. The resulting O.D. values were read by an ELISA reader (Bio-Tek modal #310) at 450 nm to quantitate the complexes bound to TRFP protein on the plates. The mice were matched for O.D. of the developed ELISA wells using the 1/500 dilution of each sera and separated into two matched groups of three animals. The range of the values for the TRFP specific IgG of 1/500 dilution sera from these animals was between 1.7 and 2.2. […]
(In general: ELISA stands for enzyme-linked immunosorbent assay.)

A further assay concerns Balb/c mice. Nature of the assay: Oral rChain 1, IgG and IgE response after repeated challenge, protocol 5. The assay is classed as in vivo, mouse. As to conditions: oral 250 μg days -7, -5, -2. How it is done: Two groups of five age-matched Balb/c were fed on days −7, −5 and −2 with 250 μg rChain 1 (Group 1) or PBS (Group 2). On day 0, the mice were challenged with 10 μg rChain 1 on alum administered i.p., and on days 47 and 78, the mice were again challenged with 25 μg rChain 1 on alum administered i.p. The antibody response was measured by ELISA (see below).
Subsequent incubations were for 1 hour at 37° C. The wells were washed with PBS containing 0.05% Tween 20 and blocked with 0.5% gelatin in PBS. Sera were diluted in PBS as noted in the individual assay and were incubated in triplicate on the washed plates. After incubation and washing, the bound mouse antibody was detected by incubation with biotinylated goat anti-mouse IgG (Southern Biotechnology Ass.). Streptavidin conjugated to horseradish peroxidase (Southern Biotechnology Associates) was added to detect antigen-bound biotinylated antibody complexes. 3,3′,5,5′-Tetramethylbenzidine peroxidase substrate (Kirkegaard & Perry Labs) was used according to directions supplied, and resulting OD (450 nm) values were determined using an ELISA reader (Bio-Tek model 310, Winooski, Vt.). […]
Antigen-bound IgE was detected similarly except using a biotinylated rat monoclonal antibody specific for mouse IgE (Baniyash et al. (1984) Eur. J. Immunol. 14:799-807). […]

Another assay relates to human IgE. Briefly: Western blot and ELISA of human IgE binding to affinity purified TRFP. An excerpt: A protein preparation was extracted from the contents of vacuum cleaner bags by a method based on that of M. D. Chapman and co-workers. Chapman, M. D. et al., J. Immunol., 140(3): 812-818 (1988). Monoclonal antibody reactive with Fel d I, produced by Chapman and co-workers, was used to identify a protein in the preparation. de Groot, H. et al., J. Allergy Clin. Immunol., 82:778-786 (1988). Selected monoclonal antibodies (designated 1G9 and 6F9) that recognize Fel d I native protein were used to affinity purify a protein, which is referred to as human T cell reactive feline protein (TRFP) (also referred to as VCB or vacuum cleaner bag protein) from a house dust sample. This was carried out, using known techniques, by producing the desired monoclonal antibody, isolating it in large quantities from ascites and immobilizing it on Sepharose 4B (Pharmacia). The protein preparation was extracted from vacuum cleaner bags of house dust obtained from several homes with cats. Aqueous vacuum cleaner bag extract was first subjected to gel filtration and decolorization and, subsequently, affinity chromatography purification. Aqueous vacuum cleaner bag extract was passed over the monoclonal antibody-containing column and a protein species was eluted. […] The affinity purified TRFP was subjected to a number of protein chemical procedures to derive primary amino sequence data. […]

Setting [2] is: specific IgG binding to TRFP, 1/4500 dilution of sera, individual mice #1-#3.

With “peptide Y: amino acid residues 29-55 from chain 1 of TRFP (SEQ. ID. NO: 18) (KALPVVLENARILKNCVDAKMTEEDKE)”, the “quantity of antibody specific for TRFP” value in assay [1] (20 days following tolerization) is “no significant change”. In assay [1] (setting [2]), the “ELISA O.D.-sera sampled after “tolerization and challenge” value is 0.492 and 0.654 and 0.585; the “ELISA O.D.-sera sampled before “tolerization” and challenge” value was 0.670 and 0.687 and 0.686.

Consider “recombinant chain 1: recombinant TRFP chain 1 expressed in E. coli”, for which, in the assay on Balb/c mice, the “specific IgG and IgE responses after repeated challenge with rChain 1 in alum” value is “decreases specific IgG and IgE responses”.

As for “TRFP: human T cell reactive feline protein affinity purified from house dust; two covalently linked chains”, the “human IgE binding” value in the assay with human IgE is given as “bind human IgE”.
